# In PubChem BioAssay (NCI):
#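 In this assay, cells in 96-well plates receive the compound at five concentrations for 48 hours. Endpoints are linearly interpolated between the surrounding concentrations. GI50 marks 50% less growth. TGI denotes the concentration required for complete inhibition of growth.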
# Key:
# Assay in all cases: NCI anticancer screen, dose series, 48 h
# A498 renal = tested on: A498 renal
# OVCAR-3 ovarian = tested on: OVCAR-3 ovarian
# HCT-15 colon = tested on: HCT-15 colon
# SR leukemia = tested on: SR leukemia
# HL-60(TB) leukemia = tested on: HL-60(TB) leukemia
# NCI-H23 lung = tested on: NCI-H23 lung
# HCT-116 colon = tested on: HCT-116 colon
# MDA-MB-231 breast = tested on: MDA-MB-231 breast
# LOX IMVI melanoma = tested on: LOX IMVI melanoma
# OVCAR-4 ovarian = tested on: OVCAR-4 ovarian
SMILES,TGI (A498 renal),TGI (OVCAR-3 ovarian),TGI (HCT-15 colon),TGI (SR leukemia),TGI (HL-60(TB) leukemia),TGI (NCI-H23 lung),TGI (HCT-116 colon),TGI (MDA-MB-231 breast),TGI (LOX IMVI melanoma),TGI (OVCAR-4 ovarian),GI50 (A498 renal),GI50 (OVCAR-3 ovarian),GI50 (HCT-15 colon),GI50 (SR leukemia),GI50 (HL-60(TB) leukemia),GI50 (NCI-H23 lung),GI50 (HCT-116 colon),GI50 (MDA-MB-231 breast),GI50 (LOX IMVI melanoma),GI50 (OVCAR-4 ovarian)
CSc1nc2cc(S(=O)(=O)N3CCCCC3)ccc2s1,> 100 µM,> 100 µM,> 100 µM,> 100 µM,> 100 µM,> 100 µM,> 100 µM,> 100 µM,> 100 µM,> 100 µM,–,–,–,–,–,–,–,–,–,–
Cn1cnc([N+](=O)[O-])c1[Se]c1nc(N)nc2c1ncn2C1OC(CO)C(O)C1O (stereo not given),> 100 µM,> 100 µM,> 100 µM,> 100 µM,> 100 µM,> 100 µM,> 100 µM,> 100 µM,> 100 µM,> 100 µM,–,–,–,–,–,–,–,–,–,–
CCN(CC)CCCC(C)Nc1cnc(C(=O)Nc2cccc3ccc(OC)nc23)cn1 (stereo not given),18 µM,5.24 µM,4.31 µM,7.36 µM,3.9 µM,5.63 µM,3.44 µM,3.45 µM,3.34 µM,4.62 µM,4.52 µM,2.24 µM,1.95 µM,2.27 µM,1.92 µM,2.44 µM,1.62 µM,1.73 µM,1.77 µM,1.98 µM
COc1ccc(-n2cc(-c3cc(OC)c(OC)c(OC)c3)[nH]c2=O)cc1Cl,> 100 µM,> 100 µM,> 100 µM,> 100 µM,> 100 µM,> 100 µM,> 100 µM,> 100 µM,> 100 µM,> 100 µM,73.9 µM,> 100 µM,> 100 µM,55.4 µM,> 100 µM,> 100 µM,> 100 µM,34.9 µM,> 100 µM,> 100 µM
CCCCN1CSC(=S)N(Cc2ccccc2)C1,> 100 µM,> 69.8 µM,> 100 µM,> 100 µM,19.4 µM,> 100 µM,> 100 µM,> 100 µM,> 100 µM,> 100 µM,–,–,–,–,–,–,–,–,–,–
O=c1[nH]c(=O)n(C2OC(CO)C(O)C(O)C2O)cc1F (stereo not given),> 100 µM,> 100 µM,> 100 µM,> 100 µM,> 74.5 µM,> 100 µM,> 100 µM,> 100 µM,> 100 µM,> 100 µM,–,–,–,–,–,–,–,–,–,–
COc1cc2c3c(n(C)c(=O)c2cc1OC)-c1cc2c(cc1/C3=C\CNCCCN)OCO2,12.1 µM,7.66 µM,17.7 µM,0.618 µM,0.782 µM,3.15 µM,4.19 µM,2.01 µM,2.23 µM,36.6 µM,3.84 µM,1.37 µM,3.13 µM,0.0203 µM,0.171 µM,0.437 µM,0.107 µM,0.333 µM,0.162 µM,3.42 µM
N#Cc1cccc(NC(=O)c2cc(-c3ccc(F)cc3F)ccc2O)c1,4.3 µM,11.7 µM,11.4 µM,89.2 µM,5.6 µM,4.35 µM,10.6 µM,5.23 µM,6.58 µM,23 µM,1.27 µM,2.17 µM,2.74 µM,3.72 µM,2.17 µM,1.43 µM,2.57 µM,2.01 µM,2.45 µM,2.11 µM
COc1cc2c3c(n(CCNCCCNCCn4c5c(c6cc(OC)c(OC)cc6c4=O)C(=O)c4ccccc4-5)c(=O)c2cc1OC)-c1ccccc1C3=O,14.5 µM,1.17 µM,> 100 µM,0.702 µM,0.334 µM,17 µM,1.16 µM,2.1 µM,0.413 µM,20.3 µM,3.12 µM,0.149 µM,54.2 µM,0.0191 µM,< 0.0154 µM,1.2 µM,0.0254 µM,0.178 µM,0.0293 µM,1.6 µM
